In patent publication US10875799B2, “System and method for generation of point of use reactive oxygen species” (Clean Chemistry, Inc., priority 2012, dated 2020):

Columns and labels:
[1] = Methylene blue (MB) dye oxidation / color removal test; conditions: hydrogen peroxide alone, after several days
[2] = cited from earlier work

Row | SMILES | effect on methylene blue [1] | pKa [2]
1 | OO [hydrogen peroxide] | no visible effect | 11.6
2 | CC(=O)OO [peroxyacetic acid] |  | 8.3
3 | [O]O [superoxide] |  | 4.8
